In PMC4187121, “Flexible Enantioselectivity of Tryptophanase Attributable to Benzene Ring in Heterocyclic Moiety of D-Tryptophan” (Life : Open Access Journal, 2012):
Entries after “also recorded” stand apart in the source; their conditions may differ.

Columns and labels:
tryptophanase [1] = molecular target: T1, tryptophanase (Escherichia coli, UniProt P0A853); assay: L-tryptophan degradation by tryptophanase, kinetic and inhibition analysis (indole formation, Ehrlich reagent); assay type: biochemical, E. coli; conditions: for effect on L-tryptophan degradation: in the absence and presence of DAP; for Ki: read-out: Inhibition const. Ki
T1 construct: purchased Sigma-Aldrich Co. (St. Louis, MO, USA)
T1 sequence (P0A853 whole entry): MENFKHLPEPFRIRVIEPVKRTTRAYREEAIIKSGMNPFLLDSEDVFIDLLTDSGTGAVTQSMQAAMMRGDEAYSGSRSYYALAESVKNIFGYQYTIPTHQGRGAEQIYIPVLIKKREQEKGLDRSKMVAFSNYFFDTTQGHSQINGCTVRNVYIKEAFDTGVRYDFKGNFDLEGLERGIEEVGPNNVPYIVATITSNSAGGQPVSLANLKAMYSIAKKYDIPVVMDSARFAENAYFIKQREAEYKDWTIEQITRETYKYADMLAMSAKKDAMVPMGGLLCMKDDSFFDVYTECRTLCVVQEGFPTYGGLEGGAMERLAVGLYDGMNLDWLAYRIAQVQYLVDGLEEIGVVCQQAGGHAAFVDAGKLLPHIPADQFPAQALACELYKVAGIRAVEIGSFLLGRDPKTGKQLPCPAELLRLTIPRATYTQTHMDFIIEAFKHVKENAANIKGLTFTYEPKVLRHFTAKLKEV
Protocol: (§1) When tryptophanase degraded L-tryptophan, all reaction mixtures included 0.2 mM of pyridoxal 5′-phosphate and 0.23 μM of tryptophanase in 100 mM potassium phosphate buffer of pH 8.3. DAP concentrations were prepared to the required concentrations of 0, 0.6, 1.2, 1.9 or 3.1 M. L-tryptophan. The reaction mixture was prepared to a concentration of 98, 108, 128, 137, 147, 167, 196, 225, 245, 294, 343, 392, 490, 680 or 980μM for kinetic analyses. Reactions were performed at 37 °C for 30 min in a Dry Thermo Unit DTU-1B (Taitec, Tokyo, Japan). Although D-tryptophan in addition to L-tryptophan was also degraded into indole in the presence of DAP, an indole production amount from D-tryptophan was neglected at this reaction temperature and time because the catalytic efficiency for D-tryptophan was 0.3% of that for L-tryptophan. On the other hand, the reaction condition of D-tryptophan degradation differed in several ways from that of L-tryptophan degradation. Each concentration of pyridoxal 5′-phosphate and tryptophanase was 1.2 mM and 0.92μM, and additionally reaction temperature and time was 55 °C and 2 h, respectively. All the other reaction conditions were the same as in the L-tryptophan degradation.
(§2) The total volume of the reaction mixture was 2 mL per tube. The reaction was stopped by adding 2 mL of n-butanol, which was vigorously mixed and then immediately centrifuged at approximately 1,000 G for 10 min. After centrifugation, the reaction mixture was separated into two layers of butanol and aqueous solutions in which indole was equally distributed. The supernatant butanol layer was extracted to be mixed with an equal volume of Ehrlich reagent, then colored red at 60 °C for 30 min in Dry Thermo Unit. […] Tryptophanase activity was assayed in triplicate at the same substrate concentration and then averaged. Initial velocity was computed based on the averaged value.
(§3) Initial velocities were defined by indole that formed within 1 minute after 1 mg of tryptophanase was added. Then the reciprocal of (initial velocity/[E] (enzyme concentration)) (ordinate) versus the reciprocal of substrate concentration (abscissa) was drawn for each concentration of L- or D-tryptophan. These double-reciprocal plots were drawn based on the least squares method to calculate kinetic parameters. Kcatwas determined from the reciprocal of the intercepts of these double-reciprocal plots, and the Michaelis constant Km from substrate concentration at 1/v = 0 in the absence of inhibitor. In noncompetitive inhibition, two inhibition constants of Ki (=[E][I]/[EI], E: enzyme; I: inhibitor; EI: enzyme-inhibitor complex) and Ki' (=[ES][I]/[ESI], ES: enzyme-substrate complex; ESI: enzyme-substrate-inhibitor complex) were determined from the slopes and from the intercepts, respectively. In the mixed type inhibition, Ki and Ki' were determined from x and y coordinates of the fixed point in the second quadrant.

tryptophanase [2] = molecular target: T1, tryptophanase; assay: D-tryptophan degradation by tryptophanase in the presence of 3.1 M DAP, kinetic and inhibition analysis; assay type: biochemical, E. coli; conditions: for effect on D-tryptophan degradation: in the presence of 3.1 M DAP
Protocol: as §1, §2, §3

[3] = inhibitor of D-tryptophan degradation, 3.1 M DAP
[4] = inhibitor of L-tryptophan degradation, DAP 0 M
[5] = inhibitor of L-tryptophan degradation, DAP 0.6 M
[6] = inhibitor of L-tryptophan degradation, DAP 1.2 M
[7] = inhibitor of L-tryptophan degradation, DAP 1.9 M
[8] = substrate L-Trp, DAP 0 M (Table 2)
[9] = substrate L-Trp, DAP 0.6 M (Table 2)
[10] = substrate L-Trp, DAP 1.2 M (Table 2)

## N[C@H](Cc1c[nH]cn1)C(=O)O [D-histidine]
Tryptophanase [1]
  effect on L-tryptophan degradation: no effect; also recorded: did not interact
Tryptophanase [2]
  effect on D-tryptophan degradation: inhibited
Tryptophanase [2]; [3]
  Inhibition type: competitively inhibited
  Ki: 400 µM

## N[C@H](Cc1ccccc1)C(=O)O [D-phenylalanine]
Tryptophanase [1]
  effect on L-tryptophan degradation: no effect
Tryptophanase [2]
  effect on D-tryptophan degradation: little

## N[C@H](Cc1c[nH]c2ccccc12)C(=O)O [D-tryptophan]
Tryptophanase [1]; in the presence of DAP, 37 °C, 30 min
  catalytic efficiency, percent of that for L-tryptophan: 0.3%
Tryptophanase [1]; [4]
  Inhibition type: competitive inhibitor
  Ki: 21000 µM
Tryptophanase [1]; [5]
  Inhibition type: mixed
  Ki: 25000 µM
Tryptophanase [1]; [6]
  Inhibition type: mixed
  Ki: 30000 µM
Tryptophanase [1]; [7]
  Inhibition type: mixed
  Ki: 38000 µM
Tryptophanase [1]; inhibitor of L-tryptophan degradation, DAP 3.1 M
  Inhibition type: noncompetitive inhibition type
Tryptophanase [1]; with increasing DAP concentrations (0 to 3.1 M), L-tryptophan degradation
  Ki/Ki': 0 to 1.0

## N[C@H](Cc1ccc(O)cc1)C(=O)O [D-tyrosine]
Tryptophanase [1]
  effect on L-tryptophan degradation: no effect
Tryptophanase [2]
  effect on D-tryptophan degradation: no effect

## N.N.O=P(O)(O)O [DAP, diammoniumhydrogen phosphate]
Tryptophanase [1]; DAP as inhibitor of L-tryptophan degradation
  Inhibition type: noncompetitive inhibitor

## N[C@@H](Cc1c[nH]c2ccccc12)C(=O)O [L-tryptophan]
Tryptophanase [1]; L-tryptophan degradation in the presence of DAP
  reduced values of kcat compared to the values in the absence of DAP: 18–45%

## O=C(O)C(=O)Cc1c[nH]c2ccccc12 [indole pyruvate]
Tryptophanase [1]; L-tryptophan degradation
  Ki, fold stronger than for pyruvate: 15 fold
Tryptophanase [1]; [8]
  Inhibition type: competitive
  Ki: 200 µM
Tryptophanase [1]; [9]
  Inhibition const. Ki': 300 µM
  Inhibition type: mixed
  Ki: 200 µM
Tryptophanase [1]; [10]
  Inhibition const. Ki': 200 µM
  Inhibition type: noncompetitive
  Ki: 200 µM

## CC(=O)C(=O)O [potassium pyruvate]
Tryptophanase [1]; [8]
  Inhibition type: competitively inhibited; also recorded: competitive
  Ki: 3000 µM
